Source: patent publication US4537717A
Values after ≈ are worked out from the molar mass of the structure shown.

Legend:
[1] = tested on: Staphylococcus aureus ATCC 6738P; assay: agar-plate disc-diffusion test; format: cell-based; conditions: suspended in water at 1 mg/ml; 7 mm disc; 24-48 hours at 25-37° C.
[2] = tested on: Micrococcus luteus ATCC 9341; assay: agar-plate disc-diffusion test; format: cell-based; conditions: suspended in water at 1 mg/ml; 7 mm disc; 24-48 hours at 25-37° C.
[3] = tested on: Staphylococcus aureus X1.1; format: cell-based; conditions: agar dilution; 2, 5, 17, 22 median of three tests; paired values two experiments
[4] = tested on: Staphylococcus aureus V41; format: cell-based; conditions: penicillin-resistant strain; agar dilution; 2, 5, 17, 22 median of three tests; paired values two experiments
[5] = tested on: Staphylococcus aureus X400; format: cell-based; conditions: methicillin-resistant strain; agar dilution; 2, 5, 17, 22 median of three tests; paired values two experiments
[6] = tested on: Staphylococcus epidermidis EPI1; format: cell-based; conditions: agar dilution; 2, 5, 17, 22 median of three tests; paired values two experiments
[7] = tested on: Staphylococcus epidermidis EPI2; format: cell-based; conditions: agar dilution; 2, 5, 17, 22 median of three tests; paired values two experiments
[8] = tested on: Streptococcus pyogenes C203; format: cell-based; conditions: agar dilution; 2, 5, 17, 22 median of three tests; paired values two experiments
[9] = tested on: Streptococcus pneumoniae Park I; format: cell-based; conditions: agar dilution; 2, 5, 17, 22 median of three tests; paired values two experiments
[10] = tested on: Streptococcus pneumoniae Group D X66; format: cell-based; conditions: agar dilution; 2, 5, 17, 22 median of three tests; paired values two experiments
[11] = tested on: Streptococcus Group 9960; format: cell-based, Streptococcus pneumoniae; conditions: agar dilution; 2, 5, 17, 22 median of three tests; paired values two experiments
[12] = tested on: Staphylococcus aureus; assay: in vivo activity against experimental bacterial infection (ED50); conditions: mice; two doses subcutaneously; dose protecting fifty percent of test animals
[13] = toxicity test (LD50); conditions: mouse, in vivo, iv, mice; administered intravenously
[14] = tested on: Bacillus subtilis ATCC 6633; assay: agar-plate disc-diffusion test; conditions: 7 mm disc, 24-48 hours at 25-37° C.; for Size of Zone of Inhibition (mm) B. subtilis ATCC 6633, grown on minimal nutrient agar: 1 mg/ml; for Size of Zone of Inhibition (mm) Bacillus subtilis ATCC 6633: suspended in water at 1 mg/ml
Description: ^a Compounds were suspended in water at a concentration of 1 mg/ml; a
7 mm disc was dipped into the suspension and then placed on the agar
surface; incubation: 24-48 hours at 25-37° C.
^b Grown on minimal nutrient agar

[15] = tested on: Streptococcus pyogenes; assay: in vivo activity against experimental bacterial infection (ED50); conditions: mice, dose protecting fifty percent of test animals

Row | Compound | Size of Zone of Inhibition (mm) Staphylococcus aureus ATCC 6738P [1] [mm] | Size of Zone of Inhibition (mm) Micrococcus luteus ATCC 9341 [2] [mm] | MIC Staphylococcus aureus X1.1 [3] [µg/mL] | MIC Staphylococcus aureus V41 [4] [µg/mL] | MIC Staphylococcus aureus X400 [5] [µg/mL] | MIC Staphylococcus epidermidis EPI1 [6] [µg/mL] | MIC Staphylococcus epidermidis EPI2 [7] [µg/mL] | MIC Streptococcus pyogenes C203 [8] [µg/mL] | MIC Streptococcus pneumoniae Park I [9] [µg/mL] | MIC Streptococcus pneumoniae Group D X66 [10] [µg/mL] | MIC Streptococcus pneumoniae Group 9960 [11] [µg/mL] | ED50 Staphylococcus aureus Subcutaneous [12] [mg/kg × 2] | LD50 [13] [mg/kg] | Size of Zone of Inhibition (mm) B. subtilis ATCC 6633, grown on minimal nutrient agar [14] [mm] | Size of Zone of Inhibition (mm) Bacillus subtilis ATCC 6633 [14] [mm] | ED50 Streptococcus pyogenes Oral ([15]; two doses orally) [mg/kg × 2] | ED50 Streptococcus pyogenes Subcutaneous ([15]; two doses subcutaneously) [mg/kg × 2]
1 | CCCCCCC(=O)N[C@@H](Cc1c[nH]c2ccccc12)C(=O)N[C@@H](CC(N)=O)C(=O)N[C@@H](CC(=O)O)C(=O)N[C@@H]1C(=O)NCC(=O)N[C@@H](CCCN)C(=O)N[C@@H](CC(=O)O)C(=O)N[C@H](C)C(=O)N[C@@H](CC(=O)O)C(=O)NCC(=O)N[C@H](CO)C(=O)N[C@@H]([C@H](C)CC(=O)O)C(=O)N[C@@H](CC(=O)c2ccccc2N)C(=O)O[C@@H]1C [Compound 1] | 17 | 21 | 8 (≈ 5.07 µM) | 8 (≈ 5.07 µM) | 8 (≈ 5.07 µM) | 16 (≈ 10.1 µM) | 8 (≈ 5.07 µM) | 2 (≈ 1.27 µM) | 8 (≈ 5.07 µM) | 128 (≈ 81.1 µM) | 128 (≈ 81.1 µM) | 2.65 | > 600 | 16 | 15 | – | –
2 | CCCCCCCCC(=O)N[C@@H](Cc1c[nH]c2ccccc12)C(=O)N[C@@H](CC(N)=O)C(=O)N[C@@H](CC(=O)O)C(=O)N[C@@H]1C(=O)NCC(=O)N[C@@H](CCCN)C(=O)N[C@@H](CC(=O)O)C(=O)N[C@H](C)C(=O)N[C@@H](CC(=O)O)C(=O)NCC(=O)N[C@H](CO)C(=O)N[C@@H]([C@H](C)CC(=O)O)C(=O)N[C@@H](CC(=O)c2ccccc2N)C(=O)O[C@@H]1C [Compound 3] | 20 | 18 | 2 (≈ 1.24 µM) | 2 (≈ 1.24 µM) | 4 (≈ 2.49 µM) | 4 (≈ 2.49 µM) | 2 (≈ 1.24 µM) | 0.25 (≈ 0.156 µM) | 2 (≈ 1.24 µM) | 32 (≈ 19.9 µM) | 8 (≈ 4.98 µM) | 0.5 | > 600 | 27 | 16 | – | –
3 | CCCCCCCCCCC(=O)N[C@@H](Cc1c[nH]c2ccccc12)C(=O)N[C@@H](CC(N)=O)C(=O)N[C@@H](CC(=O)O)C(=O)N[C@@H]1C(=O)NCC(=O)N[C@@H](CCCN)C(=O)N[C@@H](CC(=O)O)C(=O)N[C@H](C)C(=O)N[C@@H](CC(=O)O)C(=O)NCC(=O)N[C@H](CO)C(=O)N[C@@H]([C@H](C)CC(=O)O)C(=O)N[C@@H](CC(=O)c2ccccc2N)C(=O)O[C@@H]1C [Compound 5] | 19 | 21 | 0.25 (≈ 0.153 µM) | 0.25 (≈ 0.153 µM) | 0.5 (≈ 0.306 µM) | 0.5 (≈ 0.306 µM) | 0.5 (≈ 0.306 µM) | 0.125 (≈ 0.0765 µM) | 0.25 (≈ 0.153 µM) | 2 (≈ 1.22 µM) | 0.5 (≈ 0.306 µM) | 0.37 | > 600 | 21 | 19 | 138 | 0.13
